Where “and” joins values, the source holds several entries; their conditions need not be identical. Identical values can stand only once. Entries after “also recorded” stand apart in the source; their conditions may differ. Like-named read-outs stand apart in the source and are kept apart here.
Tests used:
[1] = tested on: amphetamine-induced hyperlocomotion; assay: reversal of amphetamine-induced hyperlocomotion; type: in vivo, male Sprague-Dawley rats; conditions: rats, i.p., FIG. 8-10, 13, 14
Protocol: For example, compounds of the present invention reverse amphetamine-induced hyperlocomotion in male Sprague-Dawley rats at doses ranging from 1 to 100 mg/kg i.p. Data for three example compounds follow:
Locomotor activity can be assessed as mean distance traveled (cm) in standard 16×16 photocell testing chambers measuring 43.2 cm (L)×43.2 cm (W)×30.5 cm (H) (Med Associates, St. Albans, Vt.). Animals can be habituated to individual activity chambers for at least 60 min prior to drug administration. Following administration of appropriate drugs or vehicle, activity can be recorded for a 3 hr time period. Data can be expressed as the mean (±SEM) distance traveled recorded in 10 min intervals over the test period. The data can be analyzed using repeated measures analysis of variance (ANOVA) followed by post-hoc testing using Tukey's HSD test, when appropriate. A difference can be considered significant when p≦0.05.

[2] = tested on: hippocampal long term potentiation (LTP); assay: hippocampal long term potentiation (LTP); type: cell-based; conditions: after applying a stimulus to the synapse, FIG. 17
From the text: (§1) mGluR5 potentiation has also been linked to improvement of cognition (Kinney, G. G.; O'Brien, Lemaire, W.; Burno, M.' Bickel, D. J.; Clements, M. K.; Wisnoski, D. D.; Lindsley, C. W.; Tiller, P. R.; Smith, S.; Jacobson, M. A.; Sur, C.; Duggan, M. E.; Pettibone, D. J.; Williams, Jr., D. W. ‘A novel selective allosteric modulator of metabotropic glutamate receptor subtype 5 (mGluR5) has an antipsychotic profile in rat behavioral models’ J. Pharmacol. Exp. Therapeut. 2005, 313(1), 199; Lindsley, C. W.; Wisnoski, D. D.; Leister, W. H.; O'Brien, J. A.; Lemiare, W.; Williams, Jr., D. L.; Burno, M.; Sur, C.; Kinney, G. G.; Pettibone, D. J.; iller, P. R.; Smith, S.; Duggan, M. E.; Hartman, G. D.; Conn, P. J.; Huff, J. R. ‘Discovery of positive allosteric modulators for the metabotropic glutamate receptor subtype from a series of N-(1,3-Diphenyl-1H-pyrazol-5-yl)benzamides that potentiate receptor function in vivo’ J. Med. Chem. 2004, 47, 5825; Epping-Jordan M. P., Nayak, S., Derouet, F., Dominguez, H., Bessis A. S., Le Poul E., Ludwig B. L. Mutel V., Poli S. M. and Rocher J. P. In Vivo Characterization of mGluR5 Positive Allosteric Modulators as Novel Treatments for Schizophrenia and Cognitive Dysfunction Neuropharmacology 2005, 49, 243.). […]

[3] = tested on: Novel Object Recognition (NOR); assay: Novel Object Recognition (NOR); type: in vivo; conditions: FIG. 11
From the text: as §1

[4] = tested on: prepulse inhibition (PPI); assay: reversal of amphetamine-induced prepulse inhibition (PPI) of startle; type: in vivo, rats; conditions: FIG. 15, 16; four prepulse intensities above background
From the text: Schizophrenic patients show decreased measures of sensorimotor gating, such as prepulse inhibition (PPI) of startle, and preclinical models of PPI in rats are routinely used to predict antipsychotic efficacy. In fact, PPI can be measured in humans and rats employing identical stimulus parameters yielding similar responses (Braff, D. L.; Geyer, M. A.; Swerdlow, N. R. ‘Human studies of prepulse inhibition of startle: normal subjects, patient groups, and pharmacological studies.’ Psychopharmacology 2001, 156(2-3), 234-258; Braff, D. L.; Geyer, M. A. ‘Sensorimotor gating and schizophrenia. Human and animal model studies.’ Archives of general psychiatry 1990, 47(2), 181-8; Braff, D. L.; Geyer, M. A.; Swerdlow, N. R. ‘Human studies of prepulse inhibition of startle: normal subjects, patient groups, and pharmacological studies.’ Psychopharmacology 2001, 156(2-3), 234-258; Weiss, I. C.; Feldon, J. ‘Environmental animal models for sensor motor gating deficiencies in schizophrenia: a review.’ Psychopharmacology 2001, 156(2-3), 305-326; Thomsen, M.; Woertwein, G.; Fink-Jensen, A.; Woldbye, D. P. D.; Wess, J.; Caine, S. B. ‘Decreased prepulse inhibition and increased sensitivity to muscarinic, but not dopaminergic drugs in M5 muscarinic acetylcholine receptor knockout mice.’ Psychopharmacology 2007, 192(1), 97-110.). […]

[5] = molecular target: T1, rat mGluR5 (Rattus norvegicus, UniProt P31424); assay: potentiation of mGluR5 response to glutamate, Ca2+ fluorescence (FDSS) in HEK cells transfected with rat mGluR5; type: cell-based
T1 construct: expressed in transfected cells; host or cells: human embryonic kidney (HEK) cells
T1 sequence (P31424 21-1203): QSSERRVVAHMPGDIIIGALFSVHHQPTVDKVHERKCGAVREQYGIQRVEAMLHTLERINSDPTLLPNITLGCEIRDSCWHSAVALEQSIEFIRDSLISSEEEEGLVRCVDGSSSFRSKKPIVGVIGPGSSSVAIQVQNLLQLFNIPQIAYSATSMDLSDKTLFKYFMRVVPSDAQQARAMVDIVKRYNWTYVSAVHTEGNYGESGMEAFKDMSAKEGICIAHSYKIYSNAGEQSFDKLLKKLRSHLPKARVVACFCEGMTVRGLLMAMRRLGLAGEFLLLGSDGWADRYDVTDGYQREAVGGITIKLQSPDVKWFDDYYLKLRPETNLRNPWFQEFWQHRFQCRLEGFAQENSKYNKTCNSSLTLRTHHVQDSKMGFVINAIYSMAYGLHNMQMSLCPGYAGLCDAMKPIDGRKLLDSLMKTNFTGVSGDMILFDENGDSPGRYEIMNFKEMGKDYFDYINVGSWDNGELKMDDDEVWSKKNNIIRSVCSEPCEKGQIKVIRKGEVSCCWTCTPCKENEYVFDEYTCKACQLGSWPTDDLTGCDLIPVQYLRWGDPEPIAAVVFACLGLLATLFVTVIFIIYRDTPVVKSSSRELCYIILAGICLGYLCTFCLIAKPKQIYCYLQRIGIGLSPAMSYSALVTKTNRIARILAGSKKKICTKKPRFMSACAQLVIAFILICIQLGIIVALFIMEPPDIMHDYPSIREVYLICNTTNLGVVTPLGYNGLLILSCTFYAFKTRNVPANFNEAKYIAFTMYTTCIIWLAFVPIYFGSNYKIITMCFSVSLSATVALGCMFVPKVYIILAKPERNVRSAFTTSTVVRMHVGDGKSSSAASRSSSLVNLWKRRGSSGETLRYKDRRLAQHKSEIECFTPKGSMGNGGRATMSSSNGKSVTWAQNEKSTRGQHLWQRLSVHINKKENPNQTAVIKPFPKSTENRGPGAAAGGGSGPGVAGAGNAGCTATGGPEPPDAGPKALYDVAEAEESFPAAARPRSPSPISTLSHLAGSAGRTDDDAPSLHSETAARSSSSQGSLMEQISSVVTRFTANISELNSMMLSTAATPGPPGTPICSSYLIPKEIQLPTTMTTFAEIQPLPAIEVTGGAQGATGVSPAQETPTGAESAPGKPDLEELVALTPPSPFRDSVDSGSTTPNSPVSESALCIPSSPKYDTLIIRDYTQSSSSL
Summary of the method: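 HEK cells expressing rat mGluR5, loaded with 2 μM fluo-4 AM; buffer HBSS, 20 mM HEPES, 2.5 mM probenecid, pH 7.4, 0.1% DMSO final. Compound added 5 min before glutamate, typically at EC20, with Ca2+ fluorescence read over 1 min and normalized to maximal agonist response. Potentiator EC50 from curve fitting; agonist curve shifts measured at fixed compound concentrations.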

[6] = Table 1, EC50 for potentiating the mGluR5 receptor; unit inferred; read-out: EC50
[7] = in vitro potency; read-out: In vitro

With O=C(c1ccc(F)cc1)N1CCC[C@H](c2nc(-c3ccc(F)cc3)no2)C1 [ADX47273] the “reversal of amphetamine-induced hyperlocomotion” value [1] was “afforded similar results; also recorded: reversal of amphetamine-induced hyperlocomotion”, the “increase in strength of synaptic connections (hippocampal LTP)” value [2] was “induced a robust increase in synaptic connections” and the “improvement in Novel Object Recognition (NOR)” value [3] was “robust and significant improvement in NOR; also recorded: cognitive improvement”. For the same molecule, the “reversal of amphetamine-induced prepulse inhibition (PPI)” value [4] was “affords similar results; also recorded: reversal of amphetamine-induced prepulse inhibition (PPI)”.

In the case of O=C(c1ccc(C#Cc2ccccc2)cc1)N1CCC(O)CC1 [Compound VU13, (4-hydroxypiperidin-1-yl)(4-(phenylethynyl)phenyl)methanone], the “reversal of amphetamine-induced hyperlocomotion” value [1] is reported as “efficacy in reversing amphetamine-induced hyperlocomotion; also recorded: in vivo efficacy”, the Emax ([5]; HEK293; read-out: % Glu Max) is reported as 50% and the EC50 [5, 6] is reported as 0.0143 µM. The EC50 [5, 7] was 0.0136 µM.

O=C(c1ccc(C#Cc2ccccc2)cc1)N1CCC(CO)CC1 [Compound VU14/C104B2, (4-(hydroxymethyl)piperidin-1-yl)(4-(phenylethynyl)phenyl)methanone] was tested, and the “reversal of amphetamine-induced hyperlocomotion” value [1] was “efficacy in reversing amphetamine-induced hyperlocomotion; also recorded: in vivo efficacy”, the Emax ([5]; HEK293; read-out: % Glu Max) was 41% and the EC50 [5, 6] was 0.0327 µM and 0.0434 µM. For the same molecule, the EC50 [5, 7] was 0.0296 µM.

In the case of CCCC1(O)CCN(C(=O)c2ccc(C#Cc3ccccc3)cc2)CC1 [Compound VU60/C109B2, (4-hydroxy-4-propylpiperidin-1-yl)(4-(phenylethynyl)phenyl)methanone], the “reversal of amphetamine-induced hyperlocomotion” value [1] is reported as “efficacy in reversing amphetamine-induced hyperlocomotion”, the “reversal of amphetamine-induced hyperlocomotion” value ([1]; listed as VU60) is reported as “in vivo efficacy” and the Emax ([5]; HEK293, read-out: % Glu Max) is reported as 90%. For the same molecule, the Emax ([5]; HEK293, read-out: % Glu Max, maximum extent of potentiation, normalized to maximal response to glutamate; SAR tables) was 90.1%, the EC50 [5, 6] was 1.61 µM and the EC50 [5, 7] was 1.25 µM.

With O=C(NCCc1ccc(Cl)cc1)c1ccc(C#Cc2ccccc2)cc1 [N-(4-chlorophenethyl)-4-(phenylethynyl)benzamide] the EC50 [5, 6] was 0.177 µM.

Work on CC1CCCCN1C(=O)c1ccc(C(=O)Nc2ccc(F)cc2)cc1 (stereo not drawn) [N-(4-fluorophenyl)-4-(2-methylpiperidine-1-carbonyl)benzamide] yielded an EC50 [5, 6] of 3.33 µM.

Molecule CC1CCC(NC(=O)c2ccc(C#Cc3ccccc3)cc2)CC1 (stereo not drawn) [N-(4-methylcyclohexyl)-4-(phenylethynyl)benzamide] has an EC50 [5, 6] of 0.0763 µM.

O=C(NCC1CCCCC1)c1ccc(C#Cc2ccccc2)cc1 [N-(cyclohexylmethyl)-4-(phenylethynyl)benzamide] gave an EC50 [5, 6] of 0.0687 µM.

CCCCNC(=O)c1ccc(C#Cc2ccccc2)cc1 [N-butyl-4-(phenylethynyl)benzamide] gave an EC50 [5, 6] of 0.0335 µM.

With O=C(NC1CCCC1)c1ccc(C#Cc2ccccc2)cc1 [N-cyclopentyl-4-(phenylethynyl)benzamide] the EC50 [5, 6] was 0.00278 µM.

CC(C)CCNC(=O)c1ccc(C#Cc2ccccc2)cc1 [N-isopentyl-4-(phenylethynyl)benzamide] gave an EC50 [5, 6] of 0.0273 µM.

For O=C(Nc1cc(-c2ccccc2)nn1-c1ccccc1)c1ccc([N+](=O)[O-])cc1 [VU29], the “increase in strength of synaptic connections (hippocampal LTP)” value [2] was “induced a robust increase in synaptic connections”.

Work on O=C(c1ccc(C#Cc2ccccc2)cc1)N1CCC(O)(c2ccc(F)cc2)CC1 [drawing 155, (4-(4-fluorophenyl)-4-hydroxypiperidin-1-yl)(4-(phenylethynyl)phenyl)methanone] yielded an EC50 [5, 6] of 1.25 µM.

O=C(c1ccc(C#Cc2ccccc2)cc1)N1CCC(O)(c2cccc(F)c2)CC1 [drawing 160, (4-(3-fluorophenyl)-4-hydroxypiperidin-1-yl)(4-(phenylethynyl)phenyl)methanone] was tested, and the EC50 [5, 6] was 1.77 µM.

Work on COc1ccc(C2(O)CCN(C(=O)c3ccc(C#Cc4ccccc4)cc3)CC2)cc1 [drawing 173, (4-hydroxy-4-(4-methoxyphenyl)piperidin-1-yl)(4-(phenylethynyl)phenyl)methanone] yielded an EC50 [5, 6] of 2.63 µM.

O=C(c1ccc(C#Cc2ccccc2)cc1)N1CCOCC1 [morpholino(4-(phenylethynyl)phenyl)methanone] was tested, and the EC50 [5, 6] was 0.00528 µM.

In the case of “(4-hydroxypiperidin-1-yl)(4-(phenylethynyl)phenyl)methanone [Compound VU13]”, the “reversal of amphetamine-induced hyperlocomotion” value ([1]; listed as VU000013) is reported as “affords similar results”, the “reversal of amphetamine-induced hyperlocomotion” value ([1]; listed as VU00013) is reported as “reversal of amphetamine-induced hyperlocomotion” and the EC50 [5, 6] is reported as 0.0283 µM.

From patent publication US8853392B2, “Benzamide mGluR5 positive allosteric modulators and methods of making and using same” (Vanderbilt University, priority 2007, dated 2014)
